Several values for one entry are separate records, joined by “and”; a condition that tells them apart may be missing. Equal values may be shown once.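 Growth conditions: 96-well plates. Treatment: test compound, 48 hours, 5 concentrations. Analysis: linear interpolation between bracketing concentrations; unreached endpoints set to highest concentration. At the GI50, growth is halved. Definition used: TGI = concentration required for complete inhibition of growth.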
Tests used:
Assay in all cases: NCI tumour cell line growth inhibition, 48 h
[1] = system: 786-0 renal
[2] = system: A498 renal
[3] = system: A549 NSCLC
[4] = system: ACHN renal
[5] = system: BT-549 breast
[6] = system: CAKI-1 renal
[7] = system: CCRF-CEM leukemia
[8] = system: COLO 205 colon
[9] = system: DU-145 prostate
[10] = system: EKVX NSCLC
[11] = system: HCC-2998 colon
[12] = system: HCT-116 colon
[13] = system: HCT-15 colon
[14] = system: HL-60(TB) leukemia
[15] = system: HOP-62 NSCLC
[16] = system: HOP-92 NSCLC
[17] = system: HS 578T breast
[18] = system: HT29 colon
[19] = system: IGROV1 ovarian
[20] = system: K-562 leukemia
[21] = system: KM12 colon
[22] = system: LOX IMVI melanoma
[23] = system: M14 melanoma
[24] = system: MALME-3M melanoma
[25] = system: MCF7 breast
[26] = system: MDA-MB-231 breast
[27] = system: MDA-MB-435
[28] = system: MDA-N
[29] = system: MOLT-4 leukemia
[30] = system: NCI-H226 lung
[31] = system: NCI-H23 lung
[32] = system: NCI-H460 lung
[33] = system: NCI-H522 lung
[34] = system: NCI/ADR-RES ovarian
[35] = system: OVCAR-3 ovarian
[36] = system: OVCAR-4 ovarian
[37] = system: OVCAR-5 ovarian
[38] = system: OVCAR-8 ovarian
[39] = system: PC-3 prostate
[40] = system: RPMI-8226 leukemia
[41] = system: RXF 393 renal
[42] = system: SF-268 CNS
[43] = system: SF-295 CNS
[44] = system: SF-539 CNS
[45] = system: SK-MEL-2 melanoma
[46] = system: SK-MEL-28 melanoma
[47] = system: SK-MEL-5 melanoma
[48] = system: SK-OV-3 ovarian
[49] = system: SN12C renal
[50] = system: SNB-19 CNS
[51] = system: SNB-75 CNS
[52] = system: SR leukemia
[53] = system: SW-620 colon
[54] = system: T-47D breast
[55] = system: TK-10 renal
[56] = system: U251 CNS
[57] = system: UACC-257 melanoma
[58] = system: UACC-62 melanoma
[59] = system: UO-31 renal

COc1cccc(C2c3cc4c(cc3OC(NNC(N)=O)C2C)OCO4)c1O (configuration not stated) was tested, and the TGI [1] was greater than 69.3 µM, the TGI [2] was 42.4 µM and the TGI [3] was greater than 39.8 µM. The TGI [4] was greater than 44.4 µM, the TGI [5] was greater than 100 µM and the TGI [6] was greater than 77.9 µM. The TGI [7] was greater than 100 µM, the TGI [8] was 9.05 µM and the TGI [9] was greater than 100 µM. For the same compound, the TGI [10] was greater than 50.9 µM, the TGI [11] was 35.4 µM and the TGI [12] was greater than 38.9 µM. The TGI [13] was greater than 100 µM, the TGI [14] was 4 µM and the TGI [15] was 54 µM. It also gave a TGI [16] of 51.8 µM, a TGI [17] greater than 50.8 µM and a TGI [18] greater than 23 µM. For the same compound, the TGI [19] was greater than 100 µM, the TGI [20] was greater than 100 µM and the TGI [21] was greater than 79.2 µM. It also gave a TGI [22] greater than 100 µM, a TGI [23] of 23.6 µM and a TGI [24] greater than 67.7 µM. The TGI [25] was greater than 100 µM, the TGI [26] was greater than 59.8 µM and the TGI [27] was 0.523 µM. For the same compound, the TGI [28] was 0.653 µM, the TGI [29] was greater than 100 µM and the TGI [30] was 9.4 µM. For the same compound, the TGI [31] was greater than 100 µM, the TGI [32] was greater than 26.4 µM and the TGI [33] was 10.9 µM. For the same compound, the TGI [34] was greater than 100 µM, the TGI [35] was 29.6 µM and the TGI [36] was greater than 100 µM. For the same compound, the TGI [37] was greater than 100 µM, the TGI [38] was greater than 33.8 µM and the TGI [39] was greater than 100 µM. It also gave a TGI [40] greater than 100 µM, a TGI [41] of 34.3 µM and a TGI [42] greater than 72.2 µM. For the same compound, the TGI [43] was 14 µM, the TGI [44] was 6.55 µM and the TGI [45] was 44.2 µM. For the same compound, the TGI [46] was greater than 69.6 µM, the TGI [47] was 8.54 µM and the TGI [48] was greater than 100 µM. It also gave a TGI [49] greater than 100 µM, a TGI [50] greater than 100 µM and a TGI [51] greater than 69.4 µM. It also gave a TGI [52] greater than 19.8 µM, a TGI [53] greater than 100 µM and a TGI [54] greater than 100 µM. The TGI [55] was greater than 75.5 µM, the TGI [56] was 34.3 µM and the TGI [57] was greater than 100 µM. It also gave a TGI [58] greater than 100 µM and a TGI [59] greater than 75.3 µM.

For C=C[C@H]1CN2CCc3c([nH]c4c([C@@H]5CCCN5C)c(O)ccc34)[C@@H]2C[C@@H]1C[C@H]1c2[nH]c3ccccc3c2CCN1C, the GI50 [1] was 1.63 µM, the TGI [1] was 3.15 µM and 2.83 µM and the TGI [2] was 3.11 µM and 3.44 µM. The TGI [3] was 3.12 µM and 3.13 µM, the TGI [4] was 3.39 µM and 3.1 µM and 3.32 µM and the TGI [5] was 3.27 µM and 2.96 µM. The TGI [6] was 3 µM and 3.23 µM, the GI50 [7] was 0.484 µM and 0.475 µM and the TGI [8] was 3.09 µM and 2.64 µM and 3.04 µM. For the same compound, the TGI [9] was 2.88 µM and 3.16 µM, the TGI [10] was 2.94 µM and 3.07 µM and the GI50 [11] was 0.142 µM. The TGI [11] was 0.297 µM, the GI50 [12] was 1.13 µM and the TGI [12] was 2.68 µM and 1.48 µM. For the same compound, the TGI [13] was 2.49 µM and 2.9 µM, the TGI [14] was 2.06 µM and 1.85 µM and 1.9 µM and the TGI [15] was 2.87 µM and 2.74 µM and 2.45 µM. For the same compound, the TGI [16] was 2.76 µM and 2.91 µM, the TGI [17] was 3.04 µM and 3.39 µM and the TGI [18] was 3.21 µM and 2.95 µM. For the same compound, the TGI [19] was 2.67 µM and 2.75 µM, the GI50 [21] was 1.15 µM and the TGI [21] was 2.61 µM and 2.99 µM. For the same compound, the TGI [22] was 3.03 µM and 2.86 µM, the GI50 [23] was 1.25 µM and 0.211 µM and the TGI [23] was 2.75 µM and 0.436 µM and 2.55 µM. For the same compound, the TGI [24] was 3.41 µM, the TGI [25] was 3.66 µM and 4.3 µM and the TGI [26] was 3.16 µM and 3.46 µM. For the same compound, the GI50 [27] was 1.71 µM, the TGI [27] was 2.99 µM and 2.95 µM and 3.15 µM and the GI50 [28] was 1.5 µM. For the same compound, the TGI [28] was 3.06 µM and 3.3 µM, the GI50 [29] was 0.412 µM and the GI50 [30] was 1.27 µM. For the same compound, the TGI [30] was 2.96 µM and 3.13 µM and 3.97 µM, the TGI [31] was 3.63 µM and 3.71 µM and the TGI [32] was 3.1 µM and 2.99 µM. For the same compound, the TGI [33] was 3.66 µM, the TGI [34] was 3.34 µM and 3.52 µM and the TGI [35] was 2.8 µM and 3.16 µM. The TGI [36] was 3.2 µM, the TGI [37] was 3.29 µM and 3.31 µM and 3.39 µM and the TGI [38] was 3.3 µM and 2.96 µM. The TGI [39] was 3.05 µM and 2.88 µM, the GI50 [40] was 1.94 µM and the TGI [41] was 0.913 µM and 1.52 µM. The TGI [42] was 3.03 µM and 3.42 µM, the TGI [43] was 3.05 µM and the GI50 [44] was 0.197 µM. For the same compound, the TGI [44] was 3.14 µM and 0.41 µM and 3.09 µM, the TGI [45] was 3.37 µM and the TGI [46] was 2.98 µM and 3.3 µM. For the same compound, the TGI [47] was 3.02 µM and 3.04 µM, the GI50 [48] was 2.03 µM and the TGI [48] was 3.23 µM [middle of 4 runs]. The TGI [49] was 3.13 µM and 3.39 µM, the GI50 [50] was 1.09 µM and the TGI [50] was 3.5 µM and 2.33 µM and 3.2 µM. The TGI [51] was 2.47 µM, the GI50 [52] was 0.161 µM and 0.197 µM and the TGI [52] was 520 nM [middle of 4 runs]. The GI50 [53] was 2.48 µM, the TGI [54] was 3.26 µM and 3.91 µM and the GI50 [55] was 0.031 µM. The TGI [55] was 0.993 µM and 2.98 µM and 3.44 µM, the TGI [56] was 2.94 µM and 2.95 µM and the TGI [58] was 3.28 µM. For the same compound, the GI50 [59] was 1.42 µM and 1.44 µM and the TGI [59] was 2.8 µM [middle of 4 runs].

For CN1C(=O)N/C(=C\c2ccc(S(=O)(=O)N/N=C/c3ccccc3)cc2)C1=O, the TGI [1] was greater than 100 µM, the TGI [2] was greater than 100 µM and the TGI [3] was greater than 100 µM. For the same compound, the TGI [4] was greater than 100 µM, the TGI [5] was greater than 100 µM and the TGI [6] was greater than 100 µM. For the same compound, the TGI [7] was greater than 100 µM, the TGI [8] was greater than 100 µM and the TGI [9] was greater than 100 µM. For the same compound, the TGI [10] was greater than 100 µM, the TGI [11] was greater than 100 µM and the TGI [12] was greater than 100 µM. The TGI [13] was greater than 100 µM, the TGI [14] was greater than 100 µM and the TGI [15] was greater than 100 µM. The TGI [16] was 75.5 µM, the TGI [17] was greater than 100 µM and the TGI [18] was greater than 100 µM. The TGI [19] was greater than 100 µM, the TGI [20] was greater than 100 µM and the TGI [21] was 82.1 µM. It also gave a TGI [22] greater than 100 µM, a TGI [23] greater than 100 µM and a TGI [24] greater than 100 µM. For the same compound, the TGI [25] was 68.5 µM, the TGI [26] was greater than 100 µM and the TGI [27] was greater than 100 µM. For the same compound, the TGI [28] was greater than 100 µM, the TGI [29] was 83.7 µM and the TGI [30] was greater than 100 µM. For the same compound, the TGI [31] was greater than 100 µM, the TGI [32] was 34.4 µM and the TGI [34] was greater than 100 µM. It also gave a TGI [35] greater than 100 µM, a TGI [36] greater than 100 µM and a TGI [37] greater than 100 µM. The TGI [38] was greater than 100 µM, the TGI [39] was greater than 100 µM and the TGI [40] was greater than 100 µM. For the same compound, the TGI [41] was 98.1 µM, the TGI [42] was greater than 100 µM and the TGI [43] was greater than 100 µM. The TGI [45] was greater than 100 µM, the TGI [46] was greater than 100 µM and the TGI [47] was 27.7 µM. The TGI [48] was greater than 100 µM, the TGI [49] was greater than 100 µM and the TGI [50] was greater than 100 µM. The TGI [51] was greater than 100 µM, the TGI [52] was greater than 100 µM and the TGI [53] was greater than 100 µM. For the same compound, the TGI [54] was greater than 100 µM, the TGI [55] was greater than 100 µM and the TGI [56] was greater than 100 µM. For the same compound, the TGI [57] was greater than 100 µM, the TGI [58] was greater than 100 µM and the TGI [59] was greater than 100 µM.
